Assay results from patent US12371428B2 (Exelixis, Inc., priority 2019, dated 2025).
Where two headings read alike, the source gives them in different places.

What was measured:
Assay type in all cases: cell-based
[1] = biological target: Met (phospho-Met, HGF-stimulated PC-3 prostate cancer cells) (Homo sapiens (Human), UniProt P08581); assay: Met autophosphorylation ELISA in PC-3 cells (Example F); conditions: cellular activity, read-out: c-Met IC50
Method in brief: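 Serum-starved (3 h) PC-3 cells were treated 1 h with compounds (8-point curve, 0.3% DMSO), then stimulated with 100 ng/mL human HGF for 10 min. Lysate phospho-Met (panTyr) was measured by sandwich ELISA, normalised to DMSO and reference-inhibitor controls. IC50 came from 4-parameter logistic fit.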

[2] = biological target: Mer (phospho-Mer, MERTK-transfected 293A cells) (Homo sapiens (Human), UniProt Q12866); assay: Mer autophosphorylation ELISA in transient transfected 293A cells (Example H); conditions: cellular activity
Chain of Mer (phospho-Mer, MERTK-transfected 293A cells) (Q12866 21-999): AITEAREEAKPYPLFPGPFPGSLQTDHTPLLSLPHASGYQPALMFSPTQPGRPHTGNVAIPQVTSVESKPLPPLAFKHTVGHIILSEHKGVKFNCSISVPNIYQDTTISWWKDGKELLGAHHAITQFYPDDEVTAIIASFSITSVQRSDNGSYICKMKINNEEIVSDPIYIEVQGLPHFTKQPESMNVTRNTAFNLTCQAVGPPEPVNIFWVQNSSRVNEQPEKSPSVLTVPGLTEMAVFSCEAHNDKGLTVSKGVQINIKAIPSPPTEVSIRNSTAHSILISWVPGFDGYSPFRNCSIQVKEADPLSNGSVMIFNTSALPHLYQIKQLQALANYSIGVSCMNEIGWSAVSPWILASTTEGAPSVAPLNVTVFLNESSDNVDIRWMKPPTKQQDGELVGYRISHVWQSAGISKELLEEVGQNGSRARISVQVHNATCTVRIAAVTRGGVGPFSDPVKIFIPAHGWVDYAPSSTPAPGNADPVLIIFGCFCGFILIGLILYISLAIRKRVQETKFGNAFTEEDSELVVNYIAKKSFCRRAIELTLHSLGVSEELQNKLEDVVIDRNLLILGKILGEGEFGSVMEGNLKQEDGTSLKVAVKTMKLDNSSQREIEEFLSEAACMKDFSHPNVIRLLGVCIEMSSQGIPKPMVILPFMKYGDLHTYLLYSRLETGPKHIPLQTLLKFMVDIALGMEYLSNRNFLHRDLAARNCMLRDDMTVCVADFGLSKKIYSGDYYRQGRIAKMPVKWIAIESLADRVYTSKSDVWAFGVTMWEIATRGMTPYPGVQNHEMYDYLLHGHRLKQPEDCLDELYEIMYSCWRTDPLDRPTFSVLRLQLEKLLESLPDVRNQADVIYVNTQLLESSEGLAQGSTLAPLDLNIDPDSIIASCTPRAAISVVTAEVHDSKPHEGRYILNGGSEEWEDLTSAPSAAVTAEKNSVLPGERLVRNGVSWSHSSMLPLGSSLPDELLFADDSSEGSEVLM
Method in brief: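 IC50 from phospho-Mer ELISA of MERTK-transfected 293A cell lysates after 1 h treatment with serially diluted compound in serum-free medium.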

[3] = biological target: AXL (phospho-AXL, Gas6-stimulated A-172 glioblastoma cells) (Homo sapiens (Human), UniProt P30530); assay: AXL autophosphorylation ELISA in A-172 cells (Example E); conditions: cellular activity, read-out: Axl IC50
Chain of AXL (phospho-AXL, Gas6-stimulated A-172 glioblastoma cells) (P30530 26-894): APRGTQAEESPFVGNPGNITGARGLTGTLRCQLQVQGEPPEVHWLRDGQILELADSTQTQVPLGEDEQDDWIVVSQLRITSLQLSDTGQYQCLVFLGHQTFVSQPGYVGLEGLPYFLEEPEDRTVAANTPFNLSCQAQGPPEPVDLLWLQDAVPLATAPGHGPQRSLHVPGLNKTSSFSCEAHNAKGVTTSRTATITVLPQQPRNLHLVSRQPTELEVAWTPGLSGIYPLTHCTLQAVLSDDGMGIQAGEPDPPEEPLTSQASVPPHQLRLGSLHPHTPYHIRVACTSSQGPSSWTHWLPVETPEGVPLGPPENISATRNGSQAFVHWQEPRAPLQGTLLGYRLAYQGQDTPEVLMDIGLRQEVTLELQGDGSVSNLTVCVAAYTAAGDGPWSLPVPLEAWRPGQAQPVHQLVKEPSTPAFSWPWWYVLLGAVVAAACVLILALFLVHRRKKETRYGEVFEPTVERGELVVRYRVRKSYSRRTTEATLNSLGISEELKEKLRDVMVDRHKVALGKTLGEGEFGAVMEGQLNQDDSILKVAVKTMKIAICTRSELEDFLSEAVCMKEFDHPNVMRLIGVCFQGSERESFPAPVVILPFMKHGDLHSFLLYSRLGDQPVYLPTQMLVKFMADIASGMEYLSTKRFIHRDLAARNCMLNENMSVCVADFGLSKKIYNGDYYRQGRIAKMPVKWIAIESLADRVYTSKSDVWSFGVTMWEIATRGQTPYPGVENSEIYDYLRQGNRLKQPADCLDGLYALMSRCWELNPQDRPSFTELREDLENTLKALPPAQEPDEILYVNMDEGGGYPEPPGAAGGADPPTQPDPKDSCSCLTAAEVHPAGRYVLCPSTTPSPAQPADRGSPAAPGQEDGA
Method in brief: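 Phospho-AXL was measured by ELISA in lysates of Gas6-stimulated A-172 cells, starved 24 h in serum-free medium and exposed 1 h to an 8-point compound dilution at 0.3% DMSO.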

[4] = biological target: KDR (phospho-KDR, VEGF165-stimulated HUVEC cells) (Homo sapiens (Human), UniProt P35968); assay: KDR autophosphorylation ELISA in HUVEC cells (Example G); conditions: cellular activity
Chain of KDR (phospho-KDR, VEGF165-stimulated HUVEC cells) (P35968 20-1356): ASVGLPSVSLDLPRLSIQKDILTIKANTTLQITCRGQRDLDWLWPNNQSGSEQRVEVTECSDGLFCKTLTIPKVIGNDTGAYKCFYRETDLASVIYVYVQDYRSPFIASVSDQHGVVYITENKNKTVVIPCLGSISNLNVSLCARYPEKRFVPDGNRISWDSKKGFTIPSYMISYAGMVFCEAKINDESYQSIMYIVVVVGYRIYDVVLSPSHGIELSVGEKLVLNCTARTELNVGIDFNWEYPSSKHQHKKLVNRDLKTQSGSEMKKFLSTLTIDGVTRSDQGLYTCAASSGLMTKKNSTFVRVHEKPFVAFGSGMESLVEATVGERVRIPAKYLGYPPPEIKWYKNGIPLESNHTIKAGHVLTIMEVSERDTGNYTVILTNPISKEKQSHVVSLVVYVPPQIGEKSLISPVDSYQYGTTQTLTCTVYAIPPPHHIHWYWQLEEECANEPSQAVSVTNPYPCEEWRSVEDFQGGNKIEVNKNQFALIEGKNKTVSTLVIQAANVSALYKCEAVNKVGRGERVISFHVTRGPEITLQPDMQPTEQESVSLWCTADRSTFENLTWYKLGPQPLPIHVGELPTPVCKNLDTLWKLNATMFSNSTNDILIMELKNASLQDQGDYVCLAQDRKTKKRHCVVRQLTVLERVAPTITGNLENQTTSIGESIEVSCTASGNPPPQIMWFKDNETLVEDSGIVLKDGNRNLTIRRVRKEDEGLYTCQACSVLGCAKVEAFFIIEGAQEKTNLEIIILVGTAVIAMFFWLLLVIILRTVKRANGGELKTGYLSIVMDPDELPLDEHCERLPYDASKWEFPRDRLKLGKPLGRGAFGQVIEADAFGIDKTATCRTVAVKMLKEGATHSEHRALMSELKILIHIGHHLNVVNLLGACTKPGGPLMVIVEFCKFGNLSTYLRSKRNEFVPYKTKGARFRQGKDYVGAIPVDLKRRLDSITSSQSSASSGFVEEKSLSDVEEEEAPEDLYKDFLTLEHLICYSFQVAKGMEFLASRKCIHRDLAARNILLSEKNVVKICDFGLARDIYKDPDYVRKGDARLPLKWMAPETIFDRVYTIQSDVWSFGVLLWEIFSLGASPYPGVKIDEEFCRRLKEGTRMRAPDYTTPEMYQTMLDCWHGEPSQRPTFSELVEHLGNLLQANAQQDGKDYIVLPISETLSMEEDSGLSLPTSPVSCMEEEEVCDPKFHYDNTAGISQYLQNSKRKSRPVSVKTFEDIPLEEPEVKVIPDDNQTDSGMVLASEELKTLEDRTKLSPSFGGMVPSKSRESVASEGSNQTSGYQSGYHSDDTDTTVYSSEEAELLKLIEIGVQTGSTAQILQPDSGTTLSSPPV
Method in brief: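 Read-out: phospho-KDR in cell lysates by DuoSet IC ELISA, normalised between VEGF-stimulated DMSO wells (100%) and unstimulated wells (0%). Human endothelial cells were starved overnight in serum-free medium, exposed to compound for 1 h, and then pulsed with 100 ng/mL VEGF165 for 5 min.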

[5] = Met autophosphorylation ELISA in PC-3 cells
[6] = Mer autophosphorylation ELISA in transient transfected 293A cells
[7] = AXL autophosphorylation ELISA in A-172 cells
[8] = KDR autophosphorylation ELISA in HUVEC cells

Chain of Met (phospho-Met, HGF-stimulated PC-3 prostate cancer cells) (P08581 25-1390): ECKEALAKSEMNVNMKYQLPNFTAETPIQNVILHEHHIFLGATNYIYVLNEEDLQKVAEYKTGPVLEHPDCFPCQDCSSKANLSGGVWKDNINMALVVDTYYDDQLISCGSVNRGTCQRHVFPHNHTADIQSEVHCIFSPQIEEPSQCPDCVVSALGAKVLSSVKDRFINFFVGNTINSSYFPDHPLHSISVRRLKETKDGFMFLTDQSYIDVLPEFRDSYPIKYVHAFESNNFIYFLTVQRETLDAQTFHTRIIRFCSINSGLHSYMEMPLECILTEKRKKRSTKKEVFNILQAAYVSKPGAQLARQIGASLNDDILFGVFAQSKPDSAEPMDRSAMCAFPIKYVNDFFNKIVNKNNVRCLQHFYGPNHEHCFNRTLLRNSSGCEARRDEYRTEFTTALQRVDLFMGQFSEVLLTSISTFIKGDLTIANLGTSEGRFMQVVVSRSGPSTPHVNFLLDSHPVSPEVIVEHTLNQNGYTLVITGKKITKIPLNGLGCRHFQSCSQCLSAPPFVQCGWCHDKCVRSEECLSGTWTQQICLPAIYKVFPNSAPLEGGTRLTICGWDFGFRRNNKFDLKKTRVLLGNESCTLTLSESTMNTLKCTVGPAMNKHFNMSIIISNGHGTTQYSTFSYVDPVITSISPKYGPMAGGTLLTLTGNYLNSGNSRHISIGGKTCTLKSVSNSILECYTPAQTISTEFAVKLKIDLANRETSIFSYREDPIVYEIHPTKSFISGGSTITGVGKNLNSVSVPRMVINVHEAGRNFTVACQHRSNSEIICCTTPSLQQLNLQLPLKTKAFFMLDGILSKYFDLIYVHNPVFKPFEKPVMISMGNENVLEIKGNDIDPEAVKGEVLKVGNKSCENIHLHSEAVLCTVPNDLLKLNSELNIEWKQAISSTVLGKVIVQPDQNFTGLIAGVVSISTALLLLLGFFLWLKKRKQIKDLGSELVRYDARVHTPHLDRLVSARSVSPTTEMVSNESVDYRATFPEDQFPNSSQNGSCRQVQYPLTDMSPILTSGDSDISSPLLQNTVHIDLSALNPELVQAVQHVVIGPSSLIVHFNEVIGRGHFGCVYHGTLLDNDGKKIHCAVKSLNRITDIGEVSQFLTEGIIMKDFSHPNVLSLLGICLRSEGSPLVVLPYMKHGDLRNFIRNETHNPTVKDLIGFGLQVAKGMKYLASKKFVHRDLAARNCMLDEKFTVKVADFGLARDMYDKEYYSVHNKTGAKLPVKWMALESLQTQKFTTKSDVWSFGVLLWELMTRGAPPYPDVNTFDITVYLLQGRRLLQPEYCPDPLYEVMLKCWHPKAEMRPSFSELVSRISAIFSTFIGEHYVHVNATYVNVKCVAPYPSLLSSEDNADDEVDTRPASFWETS

Structure (SMILES)	IC50 [1, 5] [nM]	IC50 [2, 6] [nM]	IC50 [3, 7] [nM]	IC50 [4, 8] [nM]	IC50 ([1]; PC-3 cells) [nM]	IC50 ([2]; transfected 293A cells) [nM]	IC50 ([3]; A-172 cells) [nM]	IC50 ([4]; HUVEC cells) [nM]
COc1cnc2c(Oc3ccc(NC(=O)c4cnc(C)c(-c5ccc(S(C)(=O)=O)cc5)c4O)cc3F)ccnc2c1 [Compound 697, N-[3-fluoro-4-[(7-methoxy-1,5-naphthyridin-4-yl)oxy]phenyl]-4-hydroxy-6-methyl-5-(4-methylsulfonylphenyl)pyridine-3-carboxamide]	100 to 300	< 100	> 300	> 300				
COc1cnc2c(Oc3ccc(NC(=O)c4c(C)nc(C)c(-c5ccc(F)cc5C)c4O)cc3)ccnc2c1 [Compound 682, 5-(4-fluoro-2-methylphenyl)-4-hydroxy-N-[4-[(7-methoxy-1,5-naphthyridin-4-yl)oxy]phenyl]-2,6-dimethylpyridine-3-carboxamide]	< 100	< 100	< 100	< 100				
Cn1cc(C(=O)Nc2ccc(Oc3ccnc4cccnc34)c(F)c2)c(=O)c(-c2ccc(F)cc2)c1CO [Compound 748, N-[3-fluoro-4-(1,5-naphthyridin-4-yloxy)phenyl]-5-(4-fluorophenyl)-6-(hydroxymethyl)-1-methyl-4-oxopyridine-3-carboxamide]	< 100	< 100	< 100	> 300				
CCOc1nc2c(Oc3ccc(NC(=O)c4c(COC)nc(C)c(-c5ccc(F)cc5)c4O)cc3)ccnc2cc1OC [Compound 672, N-[4-[(6-ethoxy-7-methoxy-1,5-naphthyridin-4-yl)oxy]phenyl]-5-(4-fluorophenyl)-4-hydroxy-2-(methoxymethyl)-6-methylpyridine-3-carboxamide]	< 100	< 100	< 100	< 100				

The next lines start with the values.

IC50 [1, 5] [nM]	IC50 [2, 6] [nM]	IC50 [3, 7] [nM]	IC50 [4, 8] [nM]	IC50 ([1]; PC-3 cells) [nM]	IC50 ([2]; transfected 293A cells) [nM]	IC50 ([3]; A-172 cells) [nM]	IC50 ([4]; HUVEC cells) [nM]	Structure (SMILES)
				< 100	< 100	< 100	> 300	COc1cc2nccc(Oc3ccc(NC(=O)c4c(C)n(CC(F)F)cc(-c5ccc(F)c(C)c5)c4=O)cc3F)c2nc1OC [Compound 812, 1-(2,2-difluoroethyl)-N-[4-[(6,7-dimethoxy-1,5-naphthyridin-4-yl)oxy]-3-fluorophenyl]-5-(4-fluoro-3-methylphenyl)-2-methyl-4-oxopyridine-3-carboxamide]
< 100	< 100	< 100	100 to 300					COc1cc2nccc(Oc3ccc(NC(=O)c4c(C)c(Br)c(C)n(-c5ccccc5)c4=O)cc3F)c2nc1OC [Compound 747, 5-bromo-N-[4-[(6,7-dimethoxy-1,5-naphthyridin-4-yl)oxy]-3-fluorophenyl]-4,6-dimethyl-2-oxo-1-phenylpyridine-3-carboxamide]
< 100	< 100	< 100	< 100					COc1cc2nccc(Oc3ccc(NC(=O)c4c(C)nc(C)c(-c5ccc(F)cc5C)c4O)cc3)c2nc1OC [Compound 681, N-[4-[(6,7-dimethoxy-1,5-naphthyridin-4-yl)oxy]phenyl]-5-(4-fluoro-2-methylphenyl)-4-hydroxy-2,6-dimethylpyridine-3-carboxamide]
< 100	< 100	< 100	< 100					COCCOc1cc2nccc(Oc3ccc(NC(=O)c4c(C)nc(C)c(-c5ccc(F)cc5C)c4O)cc3)c2nc1OC [Compound 725, 5-(4-fluoro-2-methylphenyl)-4-hydroxy-N-[4-[[6-methoxy-7-(2-methoxyethoxy)-1,5-naphthyridin-4-yl]oxy]phenyl]-2,6-dimethylpyridine-3-carboxamide]
< 100	< 100	< 100	< 100					COc1cc2nccc(Oc3ccc(NC(=O)c4c(C)nnc(-c5ccc(F)cc5)c4OC)cc3F)c2nc1OC [Compound 657, N-[4-[(6,7-dimethoxy-1,5-naphthyridin-4-yl)oxy]-3-fluorophenyl]-6-(4-fluorophenyl)-5-methoxy-3-methylpyridazine-4-carboxamide]
